Source: patent publication US20230399623A1, “ARTIFICAL LIVER ORGANOIDS AND METHODS OF THEIR PRODUCTION” (Oslo Universitetssykehus HF, priority 2020, published 2023)

Columns and labels:
[1] = test system: organoids; experiment: Heroin metabolism in liver organoids (UPLC-MS/MS); type: in vitro ADME, human; details: 10 μM heroin
Description: After 21 days differentiation, 50 organoids per well were loaded in triplicate into a 96-well plate and treated with culture media supplemented with 10 μM heroin for 1, 3, 6, and 24 hours. For controls, we used culture media without organoids; these were performed in parallel to measure heroin degradation throughout the experiment. To stop metabolism at each time point the samples were transferred to a new 96-well plate prefilled with formic acid (final conc. 0.1 M) along with internal standards. The samples were centrifuged for 10 minutes at 1000×g at 4° C. The supernatants were transferred to auto-sampler vials and analysed for heroin, morphine, and M3G using an Acquity UPLC system (Waters, Milford, MA) coupled to a Xevo-TQS triple quadrupole mass spectrometer with an electrospray ionization interface (Waters) based on a method previously described 62. Data acquisition, peak integration, and quantification of samples were performed using MassLynx 4.0 SCN509 software (Waters Corp., Milford, MA, USA).
The field of non-CYP450-mediated metabolism has attracted increasing attention as an important player in absorption, distribution, metabolism, and excretion^44. […] We tested if organoids supported heroin metabolism by exposure to 10 μM heroin and quantification by UPLC-MS/MS. […]

[2] = test system: human liver microsomes and a human S9 fraction; experiment: Heroin metabolism in control liver fractions; type: in vitro ADME; details: controls: human liver microsomes and human S9 fraction
Description: The field of non-CYP450-mediated metabolism has attracted increasing attention as an important player in absorption, distribution, metabolism, and excretion^44. We investigated liver carboxyl esterases (CES), which are hydrolytic enzymes involved in the metabolism of endogenous esters, ester-containing drugs, pro-drugs and environmental toxicants^45. The CES enzymes also metabolize a wide range of xenobiotic substrates including heroin, which is metabolized by sequential deacetylation (phase I reaction) to 6-monoacetylmorphine (6-MAM) and morphine. Morphine is then glucuronidated, by a phase II reaction via UDP-glucuronosyltransferase (UGT) to morphine-3-glucuronide (M3G). We tested if organoids supported heroin metabolism by exposure to 10 μM heroin and quantification by UPLC-MS/MS. We also compared organoid metabolism to human liver microsomes and a human S9 fraction (unfractionated microsomes and cytosol. The kinetics of metabolism was slower in the organoids we observed phase I metabolism of heroin by CES to morphine in approximately 6 hours, while the controls produced morphine in approximately 12 minutes. However, phase II metabolism (UGT) to morphine glucuronides was detectable in the organoids and absent in the controls.

[3] = test system: organoids; experiment: Oleic acid accumulation assay (BODIPY lipid staining); type: cell-based, human; details: 300 μM, 5 days
Description: 1 M Oleic acid (Sigma Aldrich) was diluted with NaOH (Sigma Aldrich) and heated at 70° C. for 30 minutes to form a 20 mM Sodium Oleate solution. This was then diluted with a 5% BSA/PBS solution at 37° C. to form a 5 mM Sodium Oleate/BSA complex. This was further diluted to 300 μM in culture media and incubated with organoids for 5 days, changing the media each day. After the fatty acid treatment, the organoids were then incubated with 3.8 μM BODIPY 493/503 (Life Technologies) for 30 minutes in culture media at 37° C., then washed two times with PBS before replacing with fresh culture media containing DRAQ5 (Thermofisher) at 1:1500. Organoids were then imaged on a confocal as described above.

SMILES	phase II metabolism (UGT) to morphine glucuronides [1]	phase II metabolism (UGT) to morphine glucuronides [2]	lipid accumulation in organoids (Bodipy) [3]
CC(=O)Oc1ccc2c3c1O[C@H]1[C@@H](OC(C)=O)C=C[C@H]4[C@@H](C2)N(C)CC[C@@]341 [heroin]	detectable	absent	
CCCCCCCC/C=C\CCCCCCCC(=O)O [free fatty acid, Oleic acid]			massive lipid accumulation
